US20260053760A1, “Compositions Suitable for Use on Skin Afflicted with Eczema” (Kenvue Brands LLC, priority 2022, published 2026)

System: Staphylococcus epidermidis (ATCC 12228)
Experiment: In vitro bacteria competition assay (co-culture)
Assay type: cell-based
Details: 1:1 co-culture with S. aureus in Nutrient Broth, 24 hours aerobic, colony counts; percentages w/v %
Experimental: In vitro bacteria competition assay evaluated Staphylococcus epidermidis (ATCC 12228, skin health associated strain) and Staphylococcus aureus (ATCC 6538, human lesion isolate) co-culture in the presence of test materials. Percentages are w/v % in liquid medium (Nutrient Broth, Culture Media and Supplies Inc.) To mimic the microenvironment of the skin surface, an aerobic, co-culture system of S. epidermidis and S. aureus was established. 50 μL S. epidermidis and 50 μL S. aureus (a 1:1 ratio) were inoculated (50 μL at approximately 5.0×10^6 CFU/mL each) in Nutrient Broth and in the presence of the test materials as specified in Table 14 below. [table] Test groups were incubated aerobically for 24 hours (n=3 per test group) After 24 hours, each test group was plated onto agar and incubated aerobically for 24 hours […]. After incubation, colonies were counted, and CFU/mL calculated. S. epidermidis and S. aureus colonies were differentiated on agar (Tryptic Soy Agar+5% sheep's blood, BD Diagnostics) based on representative morphology.

CC(O)C(=O)O (stereo not shown) [Lactic Acid (1.1%), Lactic acid]
Bacteria Competition Assay: S. epidermidis growth versus untreated: inhibited
